Assay results as given in patent publication US20240148714A1, “Triple Negative Breast Cancer Treatment Method” (Exelixis, Inc., priority 2016, published 2024).
“Also recorded” adds a separate entry of the source.

Tested on: circulating mononuclear cells
Experiment: Circulating cell biomarkers by flow cytometry in serial blood samples
Type: in vivo, human
Description: Experimental design: In this single-arm, two-stage phase 2 study, patients with metastatic TNBC with measurable disease by RECIST and up to 3 lines of prior chemotherapy for metastatic disease received cabozantinib 60 mg daily on a 21-day cycle. Patients were restaged 6 weeks following treatment initiation and every 9 weeks thereafter. The primary endpoint was objective response rate (ORR). Predefined secondary endpoints included progression free survival (PFS) and toxicity. Here, we examined cellular biomarkers using flow cytometry in serial blood samples collected at days 0 (baseline/pre-treatment), 8, 22, 43, and 64 of cabozantinib treatment. Mixed effect models were used to evaluate the changes of biomarker levels over time from baseline to day 64. Wilcoxon signed rank test were used to evaluate whether the change of biomarker levels from baseline to day 8 were different by clinical benefit. Adjusted p-values controlling false discovery rate were used to adjust for multiple comparisons.
The primary endpoint was the activity of cabozantinib, as defined by objective response rate (ORR) in patients with mTNBC. Predefined secondary endpoints included progression-free survival (PFS), toxicity, and pain. Correlative studies included analysis of MET and phospho-MET expression in archival tumor tissue, and molecular and cellular biomarkers of cabozantinib. Cellular biomarkers were examined using flow cytometry in serial blood samples collected at days 0 (baseline/pre-treatment), 8, 22, 43, and 64 of cabozantinib treatment. Mixed effect models were used to evaluate the changes of biomarker levels over time from baseline to day 64. Wilcoxon signed rank test were used to evaluate whether the change of biomarker levels from baseline to day 8 were different by clinical benefit. Adjusted p-values controlling false discovery rate were used to adjust for multiple comparisons.
Circulating Biomarker Assays: Potential biomarkers of cabozantinib activity were identified by measuring plasma proteins at baseline, on day 8 of therapy, on day 1 of each cycle of therapy, and, if available, at the time of progression. Eight milliliters of blood was collected in purple top (plasma EDTA) vacutainers and shipped on wet ice to a Clinical Laboratory Improvement Amendments-certified core in the Steele Laboratories (Massachusetts General Hospital), where whole blood was separated by centrifugation into cellular fraction and plasma. The fraction of stem/progenitor cell, lymphocyte, and myeloid populations of total circulating mononuclear cells were counted by flow cytometry using a LSR-II cytometer and FACSDiva software in fresh blood samples using the following markers: CD3, CD4, CD8, CD14, CD25, CD34, CD45, CD56, CD127, and CD133 (Becton Dickinson, Franklin Lakes, NJ, www.bd.com). Plasma was prepared in the standard fashion and stored at −78° C. until collection and analysis of all samples. The biomarkers measured included VEGF, placental growth factor (PlGF), VEGF-C, VEGF-D, soluble VEGFR1 (sVEGFR1), basic fibroblast growth factor (bFGF), and sTie-2 (using a 7-plex Growth Factor array) and granulocyte-macrophage colony stimulating factor (GM-CSF), interferon gamma (IFN-g), tumor necrosis factor alpha (TNF-a), and interleukin-1beta (IL-1b), IL-2, IL-6, IL-8, IL-10, and IL-12 heterodimer p70 (using a 9-plex Inflammatory Factor array; both Meso Scale Discovery, Gaithersburg, MD, www.mesoscale.com); and HGF, sMET, carbonic anhydrase IX (CAIX), stromal cell-derived factor 1 a (SDF1a), and sVEGFR2 by single analyte enzyme-linked immunosorbent assay (R&D Systems, Minneapolis, MN, www.rndsystems.com).
Descriptive statistics were used to summarize biomarker values at protocol-specific time points. […] The Wilcoxon signed rank test assessed biomarker change from day 1 to 8. Mixed effects linear models assessed the change in biomarker values at days 1, 8, 22, 43, and 64; values beyond day 64 were not analyzed because of the small number of patients still on protocol. […]

[1] = after cabozantinib, baseline to day 64

COc1cc2nccc(Oc3ccc(NC(=O)C4(C(=O)Nc5ccc(F)cc5)CC4)cc3)c2cc1OC [cabozantinib]
CD3+ (lymphocytes), Median (Day 1 (baseline)): 34.73 % of WBC | CD3 + CD8 − CD4 + CD25+, Median (Day 1 (baseline)): 0.66 % of WBC | CD3 + CD8 − CD4 + CD25−, Median (Day 1 (baseline)): 11.41 % of WBC | CD3 + CD8 − CD4+, Median (Day 1 (baseline)): 0.15 % of WBC | CD3 + CD56+ (NKT cells), Median (Day 1 (baseline)): 0.77 % of WBC | CD3 − CD56+ (NK cells), Median (Day 1 (baseline)): 5.84 % of WBC | CD14+ (monocytes), Median (Day 1 (baseline)): 42.20 % of WBC | CD34 + CD133+ cells, Median (Day 1 (baseline)): 0.17 % of WBC | CD3+ (lymphocytes), Median (Day 8): 24.06 % of WBC | CD3 + CD8 − CD4 + CD25+, Median (Day 8): 0.79 % of WBC | CD3 + CD8 − CD4 + CD25−, Median (Day 8): 14.18 % of WBC | CD3 + CD8 − CD4+, Median (Day 8): 0.17 % of WBC | CD3 + CD56+ (NKT cells), Median (Day 8): 0.85 % of WBC | CD3 − CD56+ (NK cells), Median (Day 8): 7.27 % of WBC | CD14+ (monocytes), Median (Day 8): 31.44 % of WBC | CD34 + CD133+ cells, Median (Day 8): 0.11 % of WBC | CD3+ (lymphocytes), Median (Day 22): 33.56 % of WBC | CD3 + CD8 − CD4 + CD25+, Median (Day 22): 0.59 % of WBC | CD3 + CD8 − CD4 + CD25−, Median (Day 22): 16.41 % of WBC | CD3 + CD8 − CD4+, Median (Day 22): 0.18 % of WBC | CD3 + CD56+ (NKT cells), Median (Day 22): 0.54 % of WBC | CD3 − CD56+ (NK cells), Median (Day 22): 8.51 % of WBC | CD14+ (monocytes), Median (Day 22): 19.03 % of WBC | CD34 + CD133+ cells, Median (Day 22): 0.12 % of WBC | CD3+ (lymphocytes), Median (Day 43): 32.79 % of WBC | CD3 + CD8 − CD4 + CD25+, Median (Day 43): 0.73 % of WBC | CD3 + CD8 − CD4 + CD25−, Median (Day 43): 17.71 % of WBC | CD3 + CD8 − CD4+, Median (Day 43): 0.19 % of WBC | CD3 + CD56+ (NKT cells), Median (Day 43): 1.02 % of WBC | CD3 − CD56+ (NK cells), Median (Day 43): 6.50 % of WBC | CD14+ (monocytes), Median (Day 43): 24.79 % of WBC | CD34 + CD133+ cells, Median (Day 43): 0.18 % of WBC | CD3+ (lymphocytes), Median (Day 64): 30.99 % of WBC | CD3 + CD8 − CD4 + CD25+, Median (Day 64): 0.61 % of WBC | CD3 + CD8 − CD4 + CD25−, Median (Day 64): 15.29 % of WBC | CD3 + CD8 − CD4+, Median (Day 64): 0.19 % of WBC | CD3 + CD56+ (NKT cells), Median (Day 64): 0.98 % of WBC | CD3 − CD56+ (NK cells), Median (Day 64): 8.13 % of WBC | CD14+ (monocytes), Median (Day 64): 23.48 % of WBC | CD34 + CD133+ cells, Median (Day 64): 0.11 % of WBC | change in CD4+ cells (CD3+CD4+CD8− T) [1]: trend for increase; also recorded: nonsignificant trend toward increase | change in CD14+ monocytes [1]: persistent decrease | change in CD56+ NK cells (CD3−CD56+ NK lymphocytes) [1]: trend for increase; also recorded: nonsignificant trend toward increase | change in circulating CD3+ cells [1]: significant increase; also recorded: persistent increase | change in circulating CD8+ T cells (CD3+CD4−CD8+ T lymphocytes) [1]: significant increase | change in fraction of CD3+CD56+ NKT cells (baseline to day 64): no significant changes | change in fraction of CD4+CD25+ Tregs (baseline to day 64): no significant changes | change in fraction of CD4+CD127+ memory T cells (baseline to day 64): no significant changes | change in fraction of CD133+ progenitor/stem cells (baseline to day 64): no significant changes | effect on circulating cell biomarkers (summary) (metastatic TNBC patients): systemic changes consistent with activation of the immune system
